The values that follow come from publication PMC12040169 (PLOS Biology, 2025).

Each structure is given as a SMILES string.

One may read the viability as a read-out of living cells in per cent, often relative to untreated cells.

This series is described as follows: in vitro. The note with it: human, hela cells, % viability.

`O=C(c1cc(Br)cc2c1OCC2)N1CCCCC1` [CBK007109]: the viability at 28.5 h, 10 µM came out at 91.8%.

Take `CCOC(=O)c1nc(C)sc1-c1ccnn1S(C)(=O)=O` [CBK007130]: the viability at 28.5 h, 10 µM worked out at 108%. For the compound `Cc1ccc(NC(=S)N2CCCC2C(=O)O)c(C)c1` (stereo not shown) [CBK007148], the viability at 28.5 h, 10 µM is 79.3%. Same read-out and setting: next, `CCCCCn1c(O)nnc1SCc1csc(CS(=O)(=O)c2ccc(Cl)cc2)n1` [CBK007176]: 80.7%; `COc1ccc(OCCN2C(=O)CNC2=S)cc1` [CBK007177]: 77%; `CC(C)(C)Oc1nc(=O)[nH]c(=O)[nH]1` [CBK007194]: 98.3%. Consider `CC(=O)N1c2ccccc2N(C(C)=O)C1c1ccc(C2N(C(C)=O)c3ccccc3N2C(C)=O)[nH]1` [CBK007216], for which the viability at 28.5 h, 10 µM stood at 110%. As to `CC(=O)N1c2ccccc2C(C)=CC1C1CCCC(=O)C1` (stereo not shown) [CBK007219], the viability at 28.5 h, 10 µM stood at 101%. Same read-out and setting: next, `O/N=C1\CSCc2ncccc21` [CBK007234]: 90.1%; `FC(F)(F)c1cnc(Sc2c[nH]nn2)c(Cl)c1` [CBK007252]: 93.3%. In the case of `Cc1ccc(O)cc1CC[C@@H]1CC(=O)CC2(C)C1CC[C@]2(O)C(=O)COC(=O)CCC(=O)O` (stereo partly shown) [CBK007270], the viability at 28.5 h, 10 µM turned out to be 119%. The same measure, in the same setting: next, `COc1ccc(C2CNC(=O)N2C(=O)OC(C)(C)C)cc1OC1CCCC1` (stereo not shown) [CBK007281]: 93.8%. Regarding `CCN1CCCC1CNc1c(Cl)c(Cl)nc2c1c(=O)n(C)c(=O)n2C` (stereo not shown) [CBK007287], the viability at 28.5 h, 10 µM stood at 97.2%. The same measure, in the same setting: next, `CCOC(=O)c1c(NC(=O)CSc2nnnn2C)sc2c1CCCC2` [CBK007332]: 103%. On the same count and under the same terms, next, `C(=N\Nc1nnnn1-c1ccccc1)/c1ccco1` [CBK007334]: 109%; `CC(C)(C)NC(=O)N1CCC(=O)N1` [CBK007341]: 95.9%; `N#Cc1c(-c2ccccc2)noc1C/C=N/O` [CBK007357]: 87.7%.

For the compound `CCOC(=O)c1cnc2nc(N3CCOCC3)nn2c1N` [CBK007371], the viability at 28.5 h, 10 µM amounted to 96.2%. With `COc1ccc(C(=O)NCC(=O)NCCOC(=O)c2c(-c3c(F)cccc3Cl)noc2C)cc1` [CBK007386], the viability at 28.5 h, 10 µM was 99.4%. For the compound `Cn1nc(C(F)(F)F)c(C#N)c1Oc1ccc(C(C)(C)C)cc1` [CBK007398], the viability at 28.5 h, 10 µM is 95.7%. On the same count and under the same terms, next, `COC(=O)C1ON2CCCCC2C1(O)C(F)(F)F` (stereo not shown) [CBK007430]: 90.6%.

For `Oc1noc(O)c1-c1ncc(C(F)(F)F)cc1Cl` [CBK007439], the viability at 28.5 h, 10 µM was found to be 91.1%. On the same count and under the same terms, next, `CCOCCC(=O)N/N=C(/C)c1ccc(Cl)s1` [CBK007454]: 94.8%.

As for `CCCc1c(OCCCCc2nnn[nH]2)ccc(C(C)=O)c1O` [CBK007468], the viability at 28.5 h, 10 µM is 90.4%. Still for that read-out and setting: next, `CN(CC#CCN1CCCC1)C(=O)CNC(=O)OC(C)(C)C` [CBK007489]: 111%. Same read-out and setting: next, `c1coc(-c2nc3n(n2)CCS3)c1` [CBK007565]: 84.7%; `OC(COc1cccc2ccccc12)CN1CCN(C(c2ccccc2)c2ccccc2)CC1` (stereo not shown) [CBK007591]: 93.1%; `COc1cc(C(=O)N2CCN(c3cc(C(C)C)ccc(CO)c3=O)CC2)cc(OC)c1OC` [CBK007673]: 91%. As for `COc1cccc2c1OCCC2CNCCCc1ccccc1` (stereo not shown) [CBK007716], the viability at 28.5 h, 10 µM (bulk resorufin, single well) turned out to be 91.8%. On to `CCC(C)(C)N1CC(=O)N=C1NCCc1ccc(S(N)(=O)=O)cc1` [CBK007750], for which the viability at 28.5 h, 10 µM came to 89.6%. Same read-out and setting: next, `Nc1cccnc1OCCN1CCN(CC(=O)N2CCCCc3ccccc32)CC1` [CBK007764]: 95.1%; `Cn1c(N2CCOCC2)cc(=O)c2ccccc21` [CBK007775]: 93.7%; `CC1(C)CC(=O)C2=C(C1)OC(=O)CC2c1ccc(Cl)cc1Cl` (stereo not shown) [CBK007777]: 93.8%. In the case of `CCCN1C[C@@H](O)C[C@H]2[C@H](O)[C@@H]1c1ccccc1N2C(=O)OC` [CBK007809], the viability at 28.5 h, 10 µM was 91.8%.

In the case of `O=c1cc(CN2CCOCC2)oc2c(OCc3nnnn3C3CC3)cccc12` [CBK007813], the viability at 28.5 h, 10 µM amounted to 101%.

With `CC(C)=NOc1ncccc1C#N` [CBK007841], the viability at 28.5 h, 10 µM came out at 115%.

`CC(C)Nc1cccnc1N1CCN(C(=O)c2cc3cc(NC(=O)N4CCOCC4)ccc3[nH]2)CC1` [CBK007872]: the viability at 28.5 h, 10 µM was found to be 96.2%. On the same count and under the same terms, next, `CN1CCCc2c1oc1c(OCc3cccnc3)cccc1c2=O` [CBK007904]: 92.1%. On the same count and under the same terms, next, `COc1cc(=O)n(C)c(C)n1` [CBK007924]: 91%. Consider `C[C@@H]1C(=O)Nc2ccc(F)cc2N1C(=O)N1CCCC1` [CBK007936], for which the viability at 28.5 h, 10 µM is 96%. With `CN(C)C1Cc2cccc3nc(S(C)(=O)=O)n(c23)C1` (stereo not shown) [CBK007942], the viability at 28.5 h, 10 µM was 94.8%. As to `Nc1cc(Cl)nc(SCC2CCCCC2)n1` [CBK007970], the viability at 28.5 h, 10 µM came out at 93.2%.

For `CC(C)(C)OC(=O)NCC(N)=S` [CBK007979], the viability at 28.5 h, 10 µM was 100%. As for `CC(c1cc2ccccc2s1)N(O)C(N)=O` (stereo not shown) [CBK008078], the viability at 28.5 h, 10 µM came out at 98.2%. `CC1(c2ccccc2)NC(NC2CCCCC2)=NC1=O` (stereo not shown) [CBK008081]: the viability at 28.5 h, 10 µM is 97.3%.

With `O=c1c2cc(Cl)ccc2sc2ncccc12` [CBK008118], the viability at 28.5 h, 10 µM is 97.4%. Still for that read-out and setting: next, `CC(=O)NCC1CC(=O)N(c2ccc(Br)cc2)C1` (stereo not shown) [CBK008134]: 109%. Same read-out and setting: next, `CC(C)(C)OC(=O)N[C@@H]1C(=O)OC(C(O)CO)[C@@H]1O` (stereo partly shown) [CBK008178]: 118%; `c1ccc(-c2cnc(C3CCCCC3)o2)cc1` [CBK008192]: 83.1%; `O=C(c1ccccc1)c1nnsc1-c1ccccc1` [CBK008193]: 97%. Same read-out and setting: next, `O=c1cc(N2CCOCC2)oc2ccccc12` [CBK008244G]: 71.5%. For the compound `CN(C)CC(=O)N/N=C/c1ccsc1` [CBK008256C], the viability at 28.5 h, 10 µM came out at 110%. The same measure, in the same setting: next, `C/C(=N/NC(=O)C[N+](C)(C)C)c1nn(-c2ccc(Cl)cc2)nc1C` [CBK008258C]: 100%; `Nc1c2c(nc3ccccc13)CCCC2O` (stereo not shown) [CBK008271F]: 95.7%. For `CC(C#CCN(C)C)N1C(=O)CCC1C` (stereo not shown) [CBK008291G], the viability at 28.5 h, 10 µM worked out at 109%. As to `S=c1[nH]nc2ccc(N3CCOCC3)nn12` [CBK008327], the viability at 28.5 h, 10 µM amounted to 101%.

For `CCOC(=O)NC(=O)C(C#N)/C=N/NC(=O)CCCNc1ncc(C(F)(F)F)cc1Cl` (stereo not shown) [CBK008354], the viability at 28.5 h, 10 µM worked out at 101%. Still for that read-out and setting: next, `O=S(=O)(NCCNc1ncc(C(F)(F)F)cc1Cl)C(F)(F)F` [CBK008366]: 109%.

Take `CC(=O)C(C)Oc1ncn(-c2ccccc2)n1` (stereo not shown) [CBK008377]: the viability at 28.5 h, 10 µM worked out at 101%. The same measure, in the same setting: next, `O=C(O)CCCc1nc(-c2cnc3n(c2=O)CCS3)no1` [CBK008438]: 90.1%; `Cc1nnsc1C(=O)N1CCN(c2cc(C(F)(F)F)ccn2)CC1` [CBK008467]: 86.4%.

Take `Oc1cc(C(F)(F)F)nc2[nH]nc(-c3cccs3)c12` [CBK008498]: the viability at 28.5 h, 10 µM turned out to be 106%.

Regarding `Cc1ccc(Cl)cc1Nc1nc2nc(C)c(NCC3CC3)cn2n1` [CBK008522], the viability at 28.5 h, 10 µM was 105%.

On to `CCCS(=O)(=O)c1ccc(NC(=O)Nc2ccc(Cl)cc2Cl)cc1` [CBK008564], for which the viability at 28.5 h, 10 µM is 76.1%.

In the case of `NCc1ccc(C(=O)N(CCc2cc(C(F)(F)F)cc(C(F)(F)F)c2)c2ccc(Cl)c(Cl)c2)cc1` [CBK008632T], the viability at 28.5 h, 10 µM was found to be 112%. For the compound `CC1=NC2c3ccsc3C=CC2S1` (stereo not shown) [CBK008720], the viability at 28.5 h, 10 µM stood at 112%. Still for that read-out and setting: next, `CC1(C)O[C@@H]2O[C@@H](C(O)CNC(=O)c3ccccc3)[C@@H](NC(=O)c3ccccc3)[C@@H]2O1` (stereo partly shown) [CBK008727]: 101%; `Cc1n[nH]c(=O)c2nc(-c3ccc(=O)[nH]n3)[nH]c12` [CBK008745]: 102%. In the case of `COc1ccc(NC(=O)N(CCO)C2CCCCC2)c(OC)c1` [CBK008768], the viability at 28.5 h, 10 µM was found to be 90.9%. Same read-out and setting: next, `COc1cc2c(cc1OC)C(CCCC#N)=[N+](C)C(C)(C)C2` [CBK008807I]: 97.9%; `CC(C)(C)NCC(O)COc1cccc2c3c(oc12)CCCC3` (stereo not shown) [CBK008871C]: 90.2%; `CCCCN1C(=S)SC(C)(C)C1N(O)C(=O)C1CCCCC1` (stereo not shown) [CBK008915]: 95.6%. As for `c1ccc(-c2ccc(COc3cncc(N4CCNCC4)n3)s2)nc1` [CBK008960G], the viability at 28.5 h, 10 µM came out at 85.4%. Same read-out and setting: next, `COc1ccc(C2(CNC(C)(C)CN)CCCC2)cc1OC` [CBK008989]: 104%; `N#CCCN(C1CCCCC1)S(=O)(=O)c1cccc2nsnc12` [CBK009093]: 94%; `CCC1=NNC(=O)C(CC(=O)Nc2ccccc2)c2cc(OC)c(OC)cc21` (stereo not shown) [CBK009158]: 92.4%.

Regarding `Cc1csc2c(N3CCSCC3)ncnc12` [CBK009169], the viability at 28.5 h, 10 µM is 100%.

As to `CCCCOc1ccc(Sc2nc(C)cc(C)n2)cc1` [CBK009219], the viability at 28.5 h, 10 µM was determined as 92.1%.

`Nc1ncn(CC(O)CO)c2nc(N3CCOCC3)nc1-2` (stereo not shown) [CBK009231]: the viability at 28.5 h, 10 µM worked out at 90.8%. The same measure, in the same setting: next, `CC1(C)C(CC(=O)NC2CCCCC2)CC1C(=O)NC1CCCCC1` (stereo not shown) [CBK009260]: 98.8%; `CC(C)c1cccc2c1OC(C(C)C)C(=O)N2` (stereo not shown) [CBK009286]: 85.2%; `N#Cc1ccc(S(=O)(=O)NC2CCCCNC2=O)cc1` (stereo not shown) [CBK009293]: 102%. Still for that read-out and setting: next, `O=C1NC2CS(=O)(=O)CC2N1Cc1ccccc1` (stereo not shown) [CBK009306]: 85.7%. Same read-out and setting: next, `CCOC(=O)CSC1=NNC(C)(c2c(O)c3ccccc3n(CC)c2=O)N1` (stereo not shown) [CBK009370]: 92.5%.

On to `O=C(CSc1ccc(Cl)cc1)NCCCN1CCOCC1` [CBK009390], for which the viability at 28.5 h, 10 µM is 99.6%.
